pIC50: −log10 of the molar value. Where two headings read alike, the source gives them in different places.
Columns and labels:
[1] = Singlet oxygen quantum yield by direct 1O2 phosphorescence at 1270 nm; type: physicochemical; settings: acetonitrile; direct phosphorescence signal of 1O2 at 1270 nm; reference [Ru(phen)3Cl2]
Protocol: The capacity of complexes IIIa-c to efficiently generate singlet oxygen (^1O2) upon irradiation with light is a key factor in the evaluation of their potential as photosensitising agents for applications in photodynamic therapy. In this connection, the singlet oxygen quantum yields of complexes IIIa-c were determined by means of direct phosphorescence signal of ^1O2 at 1270 nm generated by irradiation of acetonitrile solutions of the complexes and using dichlorotris(1,10-phenanthroline)ruthenium (II) chloride ([Ru(phen)3Cl2]) as a standard reference. A Horiba FluoroMax Plus spectrofluorometer was used for these measurements.

[2] = DHN assay (indirect UV-visible probe for 1O2); type: physicochemical; settings: acetonitrile, LED 400-500 nm; for kobs, rate constant of the DHN photo-oxidation process: [DHN]=330 μM, [Ru]=10 μM; for Φ1O2 (b) singlet oxygen quantum yield: indirect UV-visible measurements with DHN probe, standard [Ru(phen)3]Cl2
Protocol: A confirmation of the production of singlet oxygen (^1O2) with such a high quantum yields by the three IIIa-c molecular systems was obtained using 1,5-dihydroxynaphthalene (DHN) as an indirect chemical probe for ^1O2 and [Ru(phen)3]Cl2 as a commercial standard. In the DHN assay, the probe is selectively and quantitatively oxidised in the presence of ^1O2 to give the corresponding photo-oxidation product 5-hydroxy-1,4-naphthalenedione (Juglone). The production of ^1O2 was assessed by monitoring the decrease in the DHN absorption band at λ=297 nm and the corresponding increase in the Juglone band at λ=427 nm. […] On this basis, the quantum yield of formation of ^1O2 can be obtained via the equation
where φΔ are the quantum yields of ^1O2 production from the photosensitising agents, k are the rate constants obtained from the DHN assays, labs represents the absolute value for the integration of the absorption of the photosensitising agents in the spectral emission region of the LED lamp (400 nm to 500 nm), and the subscript ST indicates the commercial standard [Ru(phen)3]Cl2.

[3] = tested on: glioblastoma multiforme (U87MG); test: In-vitro photo-cytotoxicity, MTT assay, U87MG; type: cell-based; settings: 1 h incubation, MTT after 24 h, read-out: IC50 (maximum response set to zero)
Protocol: (§1) The activity of compound IIIa as a photosensitising agent in photodynamic therapy was evaluated on two in-vitro tumour models: squamous cell carcinoma of the epidermis (A431) and glioblastoma multiforme (U87MG). Cells cultured on 96-well plates were treated with increasing concentrations of IIIa dispersed in the culture medium for one hour. At the end of the incubation, the medium was replaced, and the cells were exposed to LED light (λmax 462 nm) for 30 minutes, or were left in the dark during the same time. At the end of the 30 minutes, the cells were placed back and maintained in the incubator for 24 hours before measuring the metabolic activity by MTT assay. Six replicates were used for each condition, and cell viability of 100% was calculated from the response of untreated cells not exposed to LED light. […] The high specificity of IIIa, defined as toxicity only when exposed to light, is evident from the difference in IC50 values, which indicate a potent cytotoxic activity in the presence of light irradiation and substantial inertia in the dark at the concentrations tested, as shown in Table 3.

[4] = tested on: squamous cell carcinoma of the epidermis (A431); test: In-vitro photo-cytotoxicity, MTT assay, A431; type: cell-based; settings: 1 h incubation, MTT after 24 h, read-out: IC50 (maximum response set to zero)
Protocol: as §1
The activity of compound IIIb as a photosensitising agent in photodynamic therapy was evaluated on an in vitro tumour model, i.e., squamous cell carcinoma of the epidermis (A431), following the same protocol as compound IIIa. […] The high specificity of IIIb, defined as toxicity only when exposed to light, is evident from the difference in IC50 values, which indicate a potent cytotoxic activity in the presence of light irradiation and substantial inertia in the dark at test concentrations, see Table 4.
The activity of compound IIIb encapsulated in cubosomes as a photosensitising agent in photodynamic therapy was evaluated on an in vitro tumour model: squamous cell carcinoma of the epidermis (A431), following the same protocol as compound IIIa and IIIb as such. […] However, the incorporation into a delivery system can bring numerous benefits, including increased distribution in the tumour after in vivo administration, increased stability and solubility, and improved crossing of biological barriers.

[5] = tested on: Methastatic Lung Adenocarcinoma (Calu-3); test: In-vitro photo-cytotoxicity, MTT assay, Calu-3; type: cell-based; settings: read-out: IC50 (maximum response set to zero)
Protocol: The activity of compound IIIa as a photosensitising agent in photodynamic therapy was evaluated on two in-vitro tumour models: squamous cell carcinoma of the epidermis (A431) and glioblastoma multiforme (U87MG). Cells cultured on 96-well plates were treated with increasing concentrations of IIIa dispersed in the culture medium for one hour. At the end of the incubation, the medium was replaced, and the cells were exposed to LED light (λmax 462 nm) for 30 minutes, or were left in the dark during the same time. At the end of the 30 minutes, the cells were placed back and maintained in the incubator for 24 hours before measuring the metabolic activity by MTT assay. Six replicates were used for each condition, and cell viability of 100% was calculated from the response of untreated cells not exposed to LED light. […]
The activity of compound IIIc as a photosensitising agent in photodynamic therapy was evaluated on an in-vitro tumour model, Methastatic Lung Adenocarcinoma (Calu-3), following the same protocol as compounds IIIa and IIIb. […]
The activity of compound IIIc encapsulated in cubosomes as a photosensitising agent in photodynamic therapy was evaluated on an in vitro tumour model: Methastatic Lung Adenocarcinoma (Calu-3), following the same protocol as compound IIIa and IIIb. […]

[6] = value of the commercial standard used for the calculation; cited from earlier work
[7] = 30′ LED light exposure (λmax 462 nm)

| SMILES | Φ1O2 (a) singlet oxygen quantum yield [1] | kobs, rate constant of the DHN photo-oxidation process [2] | Φ1O2 (b) singlet oxygen quantum yield [2] | pIC50 [3, 7] | pIC50 ([3]; in the dark) | pIC50 [4, 7] | pIC50 ([4]; in the dark) | pIC50 ([5]; 30′ LED light exposure) | pIC50 ([5]; in the dark) | standard quantum yield of 1O2 production [6] |
| --- | --- | --- | --- | --- | --- | --- | --- | --- | --- | --- |
| Cc1ccnc(-c2cc(C)ccn2)c1.F[P-](F)(F)(F)(F)F.F[P-](F)(F)(F)(F)F.[Ru+2].c1ccc2cc3nc4c5cccnc5c5ncccc5c4nc3cc2c1.c1ccc2cc3nc4c5cccnc5c5ncccc5c4nc3cc2c1 [Complex IIIa] | 0.54 ± 0.06 | 1.85×10^−3 | 0.44 | 6.79 | < 4.40 | 7.60 | < 4.40 |  |  |  |
| O=C([O-])c1ccnc(-c2cc(C(=O)[O-])ccn2)c1.[Ru+2].c1ccc2cc3nc4c5cccnc5c5ncccc5c4nc3cc2c1.c1ccc2cc3nc4c5cccnc5c5ncccc5c4nc3cc2c1 [Complex IIIb, [Ru(4,4′-dicarboxylate-2,2′-bipyridine)(benzo[i]dipyrido[3,2-a:2′,3′-c]phenazine)2]] | 0.50 ± 0.07 | 2.71×10^−3 | 0.47 |  |  | 6.72 | < 4.40 |  |  |  |
| F[P-](F)(F)(F)(F)F.F[P-](F)(F)(F)(F)F.O=C(c1ccnc(-c2cc(C(=O)N3CCOCC3)ccn2)c1)N1CCOCC1.[Ru+2].c1ccc2cc3nc4c5cccnc5c5ncccc5c4nc3cc2c1.c1ccc2cc3nc4c5cccnc5c5ncccc5c4nc3cc2c1 [Complex IIIc] | 0.54 ± 0.6 | 1.83×10^−3 | 0.42 |  |  |  |  | 7.19 | < 4.40 |  |
| [Cl][Ru][Cl].c1cnc2c(c1)ccc1cccnc12.c1cnc2c(c1)ccc1cccnc12.c1cnc2c(c1)ccc1cccnc12 [[Ru(phen)3]Cl2, dichlorotris(1,10-phenanthroline)ruthenium (II) chloride, reference compound] |  | 9.41×10^−4 |  |  |  |  |  |  |  | 0.38 |

— patent publication US20260191961A1, “RUTHENIUM (II) POLYPYRIDYL COMPLEX AS A PHOTO-SENSITISER IN PHOTODYNAMIC THERAPY, AND A PROCEDURE FOR MAKING SAID RUTHENIUM (II) POLYPYRIDYL COMPLEX” (UNIVERSITÀ DEGLI STUDI DI FIRENZE, priority 2022, published 2026)
